Data as given in PubChem BioAssay (NCI).
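These data come from cells grown in 96-well plates and exposed to compound for 48 hours at five concentrations. At the GI50, growth is halved. TGI marks complete inhibition of growth.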

Assays:
Assay in all cases: NCI-60 cell line screen, 48 h; in the data active = GI50 below about 0.43 µM; inactive = the rest
786-0 renal = system: 786-0 renal
A549 NSCLC = system: A549 NSCLC
ACHN renal = system: ACHN renal
BT-549 breast = system: BT-549 breast
CAKI-1 renal = system: CAKI-1 renal
COLO 205 colon = system: COLO 205 colon
DU-145 prostate = system: DU-145 prostate
EKVX NSCLC = system: EKVX NSCLC
HCC-2998 colon = system: HCC-2998 colon
HCT-116 colon = system: HCT-116 colon
HCT-15 colon = system: HCT-15 colon
HL-60(TB) leukemia = system: HL-60(TB) leukemia
HOP-62 NSCLC = system: HOP-62 NSCLC
HOP-92 NSCLC = system: HOP-92 NSCLC
HS 578T breast = system: HS 578T breast
HT29 colon = system: HT29 colon
IGROV1 ovarian = system: IGROV1 ovarian
K-562 leukemia = system: K-562 leukemia
KM12 colon = system: KM12 colon
LOX IMVI melanoma = system: LOX IMVI melanoma
MALME-3M melanoma = system: MALME-3M melanoma
MCF7 breast = system: MCF7 breast
MDA-MB-231 breast = system: MDA-MB-231 breast
MDA-MB-435 = system: MDA-MB-435
MOLT-4 leukemia = system: MOLT-4 leukemia
NCI-H226 lung = system: NCI-H226 lung
NCI-H23 lung = system: NCI-H23 lung
NCI-H460 lung = system: NCI-H460 lung
NCI-H522 lung = system: NCI-H522 lung
NCI/ADR-RES ovarian = system: NCI/ADR-RES ovarian
OVCAR-3 ovarian = system: OVCAR-3 ovarian
OVCAR-4 ovarian = system: OVCAR-4 ovarian
OVCAR-5 ovarian = system: OVCAR-5 ovarian
OVCAR-8 ovarian = system: OVCAR-8 ovarian
PC-3 prostate = system: PC-3 prostate
RPMI-8226 leukemia = system: RPMI-8226 leukemia
RXF 393 renal = system: RXF 393 renal
SF-268 CNS = system: SF-268 CNS
SF-295 CNS = system: SF-295 CNS
SF-539 CNS = system: SF-539 CNS
SK-MEL-2 melanoma = system: SK-MEL-2 melanoma
SK-MEL-28 melanoma = system: SK-MEL-28 melanoma
SK-MEL-5 melanoma = system: SK-MEL-5 melanoma
SK-OV-3 ovarian = system: SK-OV-3 ovarian
SN12C renal = system: SN12C renal
SNB-19 CNS = system: SNB-19 CNS
SNB-75 CNS = system: SNB-75 CNS
SW-620 colon = system: SW-620 colon
T-47D breast = system: T-47D breast
TK-10 renal = system: TK-10 renal
U251 CNS = system: U251 CNS
UACC-257 melanoma = system: UACC-257 melanoma
UACC-62 melanoma = system: UACC-62 melanoma
UO-31 renal = system: UO-31 renal
A498 renal = system: A498 renal
CCRF-CEM leukemia = system: CCRF-CEM leukemia
M14 melanoma = system: M14 melanoma

COc1cc(-n2cc(-c3ccc(F)cc3)[nH]c2=O)cc(OC)c1OC
inactive: GI50 (786-0 renal) > 100 µM | GI50 (A549 NSCLC) > 100 µM | GI50 (ACHN renal) > 100 µM | GI50 (BT-549 breast) 83.4 µM | GI50 (CAKI-1 renal) > 100 µM | GI50 (COLO 205 colon) > 100 µM | GI50 (DU-145 prostate) > 100 µM | GI50 (EKVX NSCLC) > 100 µM | GI50 (HCC-2998 colon) > 100 µM | GI50 (HCT-116 colon) > 100 µM | GI50 (HCT-15 colon) > 100 µM | GI50 (HL-60(TB) leukemia) > 100 µM | GI50 (HOP-62 NSCLC) > 100 µM | GI50 (HOP-92 NSCLC) > 100 µM | GI50 (HS 578T breast) 69.3 µM | GI50 (HT29 colon) > 100 µM | GI50 (IGROV1 ovarian) > 100 µM | GI50 (K-562 leukemia) > 100 µM | GI50 (KM12 colon) > 100 µM | GI50 (LOX IMVI melanoma) > 100 µM | GI50 (MALME-3M melanoma) > 100 µM | GI50 (MCF7 breast) > 100 µM | GI50 (MDA-MB-231 breast) 49.5 µM | GI50 (MDA-MB-435) > 100 µM | GI50 (MOLT-4 leukemia) > 100 µM | GI50 (NCI-H226 lung) > 100 µM | GI50 (NCI-H23 lung) > 100 µM | GI50 (NCI-H460 lung) > 100 µM | GI50 (NCI-H522 lung) > 100 µM | GI50 (NCI/ADR-RES ovarian) > 100 µM | GI50 (OVCAR-3 ovarian) > 100 µM | GI50 (OVCAR-4 ovarian) > 100 µM | GI50 (OVCAR-5 ovarian) > 100 µM | GI50 (OVCAR-8 ovarian) > 100 µM | GI50 (PC-3 prostate) > 100 µM | GI50 (RPMI-8226 leukemia) > 100 µM | GI50 (RXF 393 renal) > 100 µM | GI50 (SF-268 CNS) > 100 µM | GI50 (SF-295 CNS) > 100 µM | GI50 (SF-539 CNS) > 100 µM | GI50 (SK-MEL-2 melanoma) > 100 µM | GI50 (SK-MEL-28 melanoma) > 100 µM | GI50 (SK-MEL-5 melanoma) > 100 µM | GI50 (SK-OV-3 ovarian) > 100 µM | GI50 (SN12C renal) > 100 µM | GI50 (SNB-19 CNS) > 100 µM | GI50 (SNB-75 CNS) 31.5 µM | GI50 (SW-620 colon) > 100 µM | GI50 (T-47D breast) > 100 µM | GI50 (TK-10 renal) > 100 µM | GI50 (U251 CNS) 71.6 µM | GI50 (UACC-257 melanoma) > 100 µM | GI50 (UACC-62 melanoma) > 100 µM | GI50 (UO-31 renal) > 100 µM
> 100 µM: TGI (786-0 renal) | TGI (A549 NSCLC) | TGI (ACHN renal) | TGI (BT-549 breast) | TGI (CAKI-1 renal) | TGI (COLO 205 colon) | TGI (DU-145 prostate) | TGI (EKVX NSCLC) | TGI (HCC-2998 colon) | TGI (HCT-116 colon) | TGI (HCT-15 colon) | TGI (HL-60(TB) leukemia) | TGI (HOP-62 NSCLC) | TGI (HOP-92 NSCLC) | TGI (HS 578T breast) | TGI (HT29 colon) | TGI (IGROV1 ovarian) | TGI (K-562 leukemia) | TGI (KM12 colon) | TGI (LOX IMVI melanoma) | TGI (MALME-3M melanoma) | TGI (MCF7 breast) | TGI (MDA-MB-231 breast) | TGI (MDA-MB-435) | TGI (MOLT-4 leukemia) | TGI (NCI-H226 lung) | TGI (NCI-H23 lung) | TGI (NCI-H460 lung) | TGI (NCI-H522 lung) | TGI (NCI/ADR-RES ovarian) | TGI (OVCAR-3 ovarian) | TGI (OVCAR-4 ovarian) | TGI (OVCAR-5 ovarian) | TGI (OVCAR-8 ovarian) | TGI (PC-3 prostate) | TGI (RPMI-8226 leukemia) | TGI (RXF 393 renal) | TGI (SF-268 CNS) | TGI (SF-295 CNS) | TGI (SF-539 CNS) | TGI (SK-MEL-2 melanoma) | TGI (SK-MEL-28 melanoma) | TGI (SK-MEL-5 melanoma) | TGI (SK-OV-3 ovarian) | TGI (SN12C renal) | TGI (SNB-19 CNS) | TGI (SW-620 colon) | TGI (T-47D breast) | TGI (TK-10 renal) | TGI (U251 CNS) | TGI (UACC-257 melanoma) | TGI (UACC-62 melanoma) | TGI (UO-31 renal)
86.3 µM: TGI (SNB-75 CNS)

[Cl][Hg][c]1cc[c]([Hg][Cl])o1
3.23 µM: TGI (SW-620 colon)
15.1 µM: TGI (786-0 renal)
14.4 µM: TGI (MDA-MB-435)
4.27 µM: TGI (LOX IMVI melanoma)
7.03 µM: TGI (HL-60(TB) leukemia)
1.69 µM: TGI (NCI-H522 lung)
12 µM: TGI (M14 melanoma)
8.59 µM: TGI (MOLT-4 leukemia)
7.34 µM: TGI (RPMI-8226 leukemia)
3.39 µM: TGI (ACHN renal)
3.26 µM: TGI (COLO 205 colon)
51.8 µM: TGI (NCI-H226 lung)
12.9 µM: TGI (SN12C renal)
23.9 µM: TGI (OVCAR-5 ovarian)
92.1 µM: TGI (NCI-H23 lung)
77.6 µM: TGI (SK-OV-3 ovarian)
3.66 µM: TGI (T-47D breast)
> 100 µM: TGI (HS 578T breast) | TGI (NCI/ADR-RES ovarian)
15.8 µM: TGI (SNB-19 CNS)
34.6 µM: TGI (OVCAR-8 ovarian)
34.2 µM: TGI (A498 renal)
16.2 µM: TGI (UACC-62 melanoma)
24.4 µM: TGI (KM12 colon)
5.09 µM: TGI (MDA-MB-231 breast)
13.8 µM: TGI (SF-539 CNS)
53.5 µM: TGI (A549 NSCLC)
2.46 µM: TGI (U251 CNS)
12.3 µM: TGI (SF-268 CNS)
11.3 µM: TGI (SK-MEL-2 melanoma)
58.6 µM: TGI (SF-295 CNS)
9.88 µM: TGI (HT29 colon)
16.1 µM: TGI (DU-145 prostate)
inactive: GI50 (786-0 renal) 4.5 µM | GI50 (A498 renal) 20 µM | GI50 (A549 NSCLC) 21.9 µM | GI50 (ACHN renal) 1.85 µM | GI50 (BT-549 breast) 1.99 µM | GI50 (COLO 205 colon) 1.65 µM | GI50 (DU-145 prostate) 3.81 µM | GI50 (EKVX NSCLC) 2.78 µM | GI50 (HCC-2998 colon) 17 µM | GI50 (HCT-116 colon) 6.4 µM | GI50 (HCT-15 colon) 2.05 µM | GI50 (HL-60(TB) leukemia) 2.39 µM | GI50 (HOP-62 NSCLC) 13.5 µM | GI50 (HOP-92 NSCLC) 1.77 µM | GI50 (HS 578T breast) 3.71 µM | GI50 (HT29 colon) 2.99 µM | GI50 (IGROV1 ovarian) 1.93 µM | GI50 (K-562 leukemia) 1.24 µM | GI50 (KM12 colon) 10.6 µM | GI50 (LOX IMVI melanoma) 0.707 µM | GI50 (M14 melanoma) 2.53 µM | GI50 (MALME-3M melanoma) 1.68 µM | GI50 (MCF7 breast) 0.529 µM | GI50 (MDA-MB-231 breast) 1.9 µM | GI50 (MDA-MB-435) 3.4 µM | GI50 (MOLT-4 leukemia) 1.58 µM | GI50 (NCI-H226 lung) 21.8 µM | GI50 (NCI-H23 lung) 7.91 µM | GI50 (NCI-H460 lung) 10 µM | GI50 (NCI/ADR-RES ovarian) 8.25 µM | GI50 (OVCAR-4 ovarian) 1.63 µM | GI50 (OVCAR-5 ovarian) 7.17 µM | GI50 (OVCAR-8 ovarian) 3.39 µM | GI50 (PC-3 prostate) 6.83 µM | GI50 (RPMI-8226 leukemia) 1.66 µM | GI50 (RXF 393 renal) 1.41 µM | GI50 (SF-268 CNS) 2.77 µM | GI50 (SF-295 CNS) 19.4 µM | GI50 (SF-539 CNS) 3.08 µM | GI50 (SK-MEL-2 melanoma) 2.56 µM | GI50 (SK-MEL-28 melanoma) 5.6 µM | GI50 (SK-MEL-5 melanoma) 2.43 µM | GI50 (SK-OV-3 ovarian) 15 µM | GI50 (SN12C renal) 2.25 µM | GI50 (SNB-19 CNS) 3.44 µM | GI50 (SNB-75 CNS) 3.78 µM | GI50 (SW-620 colon) 1.32 µM | GI50 (T-47D breast) 1.18 µM | GI50 (TK-10 renal) 1.7 µM | GI50 (U251 CNS) 0.737 µM | GI50 (UACC-257 melanoma) 7.93 µM | GI50 (UACC-62 melanoma) 3.46 µM | GI50 (UO-31 renal) 1.98 µM
6.06 µM: TGI (HCT-15 colon)
2.92 µM: TGI (RXF 393 renal)
19.9 µM: TGI (SK-MEL-28 melanoma)
3.1 µM: TGI (TK-10 renal)
19.6 µM: TGI (SNB-75 CNS)
20.7 µM: TGI (HCT-116 colon)
8.84 µM: TGI (MCF7 breast)
8.75 µM: TGI (CCRF-CEM leukemia)
28.1 µM: TGI (EKVX NSCLC)
11.8 µM: TGI (K-562 leukemia)
8.67 µM: TGI (BT-549 breast)
3.52 µM: TGI (HOP-92 NSCLC)
28.5 µM: TGI (PC-3 prostate)
4.24 µM: TGI (OVCAR-4 ovarian)
28.4 µM: TGI (HOP-62 NSCLC)
42.9 µM: TGI (HCC-2998 colon)
active: GI50 (CCRF-CEM leukemia) 0.295 µM | GI50 (NCI-H522 lung) 0.367 µM
28.8 µM: TGI (UACC-257 melanoma)
34.1 µM: TGI (NCI-H460 lung)
3.96 µM: TGI (UO-31 renal)
3.37 µM: TGI (MALME-3M melanoma)
10.1 µM: TGI (IGROV1 ovarian)
9.6 µM: TGI (SK-MEL-5 melanoma)
